One block for each molecule: values may come before it.
Tests used:
BACE1 [1] = target: T1, BACE1 (Homo sapiens, UniProt P56817); assay: In Vitro Enzymatic BACE FRET (Fluorescence Resonance Energy Transfer) Assay; format: biochemical
Method: In Vitro Enzymatic BACE FRET (Fluorescence Resonance Energy Transfer) Assay (Enzyme Assay Data in the Example Tables I, II, III & IV) The assay buffer used in this screen is 0.05 M acetate, pH 4.2, 10% DMSO final, 100 uM genapol (which is a nonionic detergent, below its Critical Micelle Concentration). […] This assay is effectively started by the addition of FRET substrate (50 nM) and the combination is incubated for one hour. The FRET assay is terminated with by addition of Tris buffer, which raises the pH to neutrality, and the fluorescence is determined. The FRET substrate is a peptide with commercially available fluorophore and quencher, on opposite sides of the BACE cleavage site. […]

BACE1 [2] = target: T1, BACE1; assay: In Vitro BACE Cell-based Assay (HEK cell assay): Aβ40 in conditioned medium of cells stably expressing Amyloid Precursor Protein, sandwich ELISA
Method: In Vitro BACE Cell-based Assay
The cell-based assay measures inhibition or reduction of Aβ40 in conditioned medium of test compound treated cells expressing amyloid precursor protein.
Cells stably expressing Amyloid Precursor Protein (APP) were plated at a density of 40K cells/well in 96 well plates (Costar). The cells were cultivated for 24 hours at 37° C. and 5% CO2 in DMEM supplemented with 10% FBS. The test compounds were then added to cells in 10-point dose response concentrations with the starting concentration being either 100 μM or 10 μM. The compounds were diluted from stock solutions in DMSO and the final DMSO concentration of the test compounds on cells was 0.1%. After 24 h of incubation with the test compounds the supernatant conditioned media was collected and the Aβ 40 levels were determined using a sandwich ELISA. The IC50 of the compound was calculated from the percent of control or percent inhibition of Aβ 40 as a function of the concentration of the test compound.
The sandwich ELISA to detect Aβ 40 was performed in 96 well microtiter plates, which were pre-treated with goat anti-rabbit IgG (Pierce). The capture and detecting antibody pair that were used to detect Aβ 40 from cell supernatants were affinity purified pAb40 (Biosource) and biotinylated 6E10 (Signet Labs Inc.), respectively. The optimal concentration for the pAb40 antibody was 3 μg/ml in Superblock/TBS (Pierce) that was supplemented with 0.05% Tween 20 (Sigma).
Cellular supernatants were incubated with the capture antibody for 3 h at 4° C., followed by 3 wash steps in TBS-tween (0.05%). The detecting antibody incubation was for 2 h at 4° C., again followed by the wash steps as described previously. The final readout of the ELISA is Time-Resolved Fluorescence (counts per minute) using Delfia reagents Streptavidin-Europium and Enhancement solutions (Perkin Elmer) and the Victor 2 multilabel counter (Perkin Elmer).

[3] = in vitro BACE FRET enzyme assay, IC50 class symbols, read-out: BACE1 FRET assay
[4] = HEK cell-based assay, Aβ40 in conditioned medium, IC50 class symbols, read-out: HEK cell assay
[5] = Table IV, class symbols, read-out: BACE1 FRET assay
[6] = Table IV, class symbols, read-out: HEK cell assay
[7] = HEK cells, read-out: HEK cell assay
[8] = Table III, IC50's in uM ranges, read-out: BACE1 FRET assay
[9] = Table III, IC50's in uM ranges, read-out: HEK cell assay
[10] = Table II, read-out: BACE1 FRET assay

T1 sequence (P56817 46-501, species assumed): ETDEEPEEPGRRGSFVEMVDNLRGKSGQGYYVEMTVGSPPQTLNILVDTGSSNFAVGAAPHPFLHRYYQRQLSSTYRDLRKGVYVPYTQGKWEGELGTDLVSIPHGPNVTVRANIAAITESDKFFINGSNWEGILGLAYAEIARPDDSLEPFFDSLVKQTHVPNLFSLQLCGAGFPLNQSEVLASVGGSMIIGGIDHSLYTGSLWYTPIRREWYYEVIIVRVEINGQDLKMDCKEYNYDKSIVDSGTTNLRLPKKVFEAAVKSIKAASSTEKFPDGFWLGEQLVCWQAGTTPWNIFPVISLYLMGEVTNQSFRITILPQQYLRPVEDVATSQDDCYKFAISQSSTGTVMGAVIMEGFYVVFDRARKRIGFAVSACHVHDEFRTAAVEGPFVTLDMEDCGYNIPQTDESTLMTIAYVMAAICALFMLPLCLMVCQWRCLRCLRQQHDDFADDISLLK

IC50 (BACE1 [1]; [5]): 0.1 to 1 µM
IC50 (BACE1 [2]; [6]): 0.1 to 1 µM
Compound: NC1=N[C@@]2(CO1)c1ccccc1Oc1ccc(-c3cncnc3)cc12 [compound 844]

IC50 (BACE1 [1]; [8]): 0.1 to 1 µM
IC50 (BACE1 [2]; [9]): 0.1 to 1 µM
Compound: COCC#Cc1ccc2c(c1)[C@@]1(COC(N)=N1)c1cc(-c3cncnc3)ccc1O2 [156b]

IC50 (BACE1 [1]; read-out: BACE1 FRET assay): < 0.1 µM
IC50 (BACE1 [2]; read-out: HEK cell assay): 0.1 to 1 µM
Compound: CC(C)(C)CC(=O)c1ccc2c(c1)[C@]1(CSC(N)=N1)c1cc(-c3cncnc3)ccc1O2 [compound 761]

IC50 (BACE1 [1]; [5]): < 0.1 µM
IC50 (BACE1 [2]; [6]): 0.1 to 1 µM
Compound: CC(C)(C)COc1ccc2c(c1)[C@]1(COC(N)=N1)c1cc(-c3cnccc3Cl)ccc1O2 [compound 883]

IC50 (BACE1 [1]; [8]): 0.1 to 1 µM
IC50 (BACE1 [2]; [9]): 1 to 5 µM
Compound: COc1ccncc1-c1ccc2c(c1)[C@@]1(COC(N)=N1)c1cc(OCC(C)(C)C)ccc1O2 [compound 217]

IC50 (BACE1 [1]; read-out: BACE1 FRET assay): 1 to 5 µM
IC50 (BACE1 [2]; read-out: HEK cell assay): 1 to 5 µM
Compound: CC(C)(C)COc1ccc2c(n1)[C@@]1(COC(N)=N1)c1cc(-c3cncnc3)ccc1O2 [compound 732]

IC50 (BACE1 [1]; [10]): < 0.1 µM
Compound: NC1=N[C@]2(CO1)c1cc(OC[C@H]3CCCO3)ccc1Oc1ccc(-c3cncnc3)cc12 [Example 106, (4S)-2′-(5-pyrimidinyl)-7′-((2R)-tetrahydro-2-furanylmethoxy)spiro[1,3-oxazole-4,9′-xanthen]-2-amine]

Second part, the molecule before the results:

Compound: COc1ccc2c(c1)C1(COC(N)=N1)c1cc(Br)ccc1O2 (stereo not shown) [Example 35, 2′-bromo-7′-methoxyspiro[1,3-oxazole-4,9′-xanthen]-2-amine]
IC50 (BACE1 [1]; Table 1, read-out: BACE1 FRET assay): > 5 µM
IC50 (BACE1 [2]; Table 1, Aβ40, 24 h incubation, read-out: HEK cell assay): > 5 µM

Compound: CC1(COc2cnc3c(c2)[C@]2(COC(N)=N2)c2cc(-c4cc(F)ccc4F)ccc2O3)COC1 [compound 412]
IC50 (BACE1 [1]; [3]): < 0.1 µM
IC50 (BACE1 [2]; [4]): < 0.1 µM

Compound: NC1=N[C@]2(CO1)c1ccccc1Oc1ccc(C(=O)NC3CCCCC3)cc12 [compound 621]
IC50 (BACE1 [1]; [5]): > 5 µM
IC50 (BACE1 [2]; [6]): > 5 µM

Compound: NC1=N[C@@]2(CO1)c1cc(-c3cncnc3)ccc1Oc1ccc([C@@H]3CCOC3)cc12 [compound 420]
IC50 (BACE1 [1]; read-out: BACE1 FRET assay): < 0.1 µM
IC50 (BACE1 [2]; [7]): 0.1 to 1 µM

Compound: NC1=N[C@@]2(CO1)c1cc(Br)ccc1Oc1ccc(C#CC3(O)CCC3)cc12 [compound 957]
IC50 (BACE1 [1]; read-out: BACE1 FRET assay): 1 to 5 µM
IC50 (BACE1 [2]; read-out: HEK cell assay): > 5 µM

Compound: COC1CN(c2cnc3c(c2)[C@]2(COC(N)=N2)c2cc(-c4cc(F)ccc4F)ccc2O3)C1 [compound 456]
IC50 (BACE1 [1]; read-out: BACE1 FRET assay): < 0.1 µM
IC50 (BACE1 [2]; [7]): < 0.1 µM

Compound: NC1=N[C@@]2(CO1)c1cc(-c3cccnc3F)ccc1Oc1cnc(-c3ccccc3)cc12 [compound 494]
IC50 (BACE1 [1]; BACE1 FRET assay (uM)): < 0.1 µM
IC50 (BACE1 [2]; HEK cell assay (uM), HEK cells): < 0.1 µM

Compound: CC(C)(O)C#Cc1cnc2c(c1)[C@@]1(COC(N)=N1)c1cc(-c3ccccc3)ccc1O2 [compound 709]
IC50 (BACE1 [1]; read-out: BACE1 FRET assay): 1 to 5 µM
IC50 (BACE1 [2]; read-out: HEK cell assay): > 5 µM

Compound: NC1=N[C@]2(CO1)c1ccncc1Oc1ccc(-c3cccnc3)cc12 [compound 675]
IC50 (BACE1 [1]; read-out: BACE1 FRET assay): 0.1 to 1 µM
IC50 (BACE1 [2]; read-out: HEK cell assay): 1 to 5 µM

Compound: COc1ccc2c(c1)[C@]1(COC(N)=N1)c1cc(C#CC(C)(C)O)cnc1O2 [compound 903]
IC50 (BACE1 [1]; [5]): > 5 µM
IC50 (BACE1 [2]; [6]): > 5 µM

Compound: Cc1cncc(-c2ccc3c(c2)[C@@]2(COC(N)=N2)c2cc(Cl)ncc2O3)c1 [compound 327]
IC50 (BACE1 [1]; [3]): 0.1 to 1 µM
IC50 (BACE1 [2]; [4]): 1 to 5 µM

Compound: NC1=N[C@@]2(CO1)c1cc(-c3cccnc3)ccc1Oc1c(F)cccc12 [compound 592]
IC50 (BACE1 [1]; [5]): < 0.1 µM
IC50 (BACE1 [2]; [6]): 0.1 to 1 µM

Compound: COc1ccc(-c2ccc3c(c2)[C@]2(COC(N)=N2)c2cc(-c4cncnc4)ccc2O3)cc1OC [compound 830]
IC50 (BACE1 [1]; [5]): < 0.1 µM
IC50 (BACE1 [2]; [6]): 0.1 to 1 µM

Compound: NC1=N[C@@]2(CO1)c1cc(-c3cccnc3F)ccc1Oc1cnc(-c3ccc(F)nc3)cc12 [compound 312]
IC50 (BACE1 [1]; [3]): < 0.1 µM

Compound: NC1=N[C@@]2(CO1)c1cc(-c3cccc(Cl)c3)ccc1Oc1ncc(C3=CCOCC3)cc12 [compound 322]
IC50 (BACE1 [1]; [3]): < 0.1 µM

Compound: NC1=N[C@]2(CO1)c1cc(OCC3CCCO3)ccc1Oc1ccc(-c3cccnc3)cc12 (stereo partly drawn) [Example 99, (4S)-2′-(3-pyridinyl)-7′-(tetrahydro-2-furanylmethoxy)spiro[1,3-oxazole-4,9′-xanthen]-2-amine]
IC50 (BACE1 [1]; [10]): < 0.1 µM

Compound: COc1ccc(-c2cnc3c(c2)[C@]2(COC(N)=N2)c2cc(OCC(C)(C)C#N)ccc2O3)cn1 [compound 341]
IC50 (BACE1 [1]; [3]): < 0.1 µM

From patent US8426447B2, “Spiro-tricyclic ring compounds as beta-secretase modulators and methods of use” (Amgen Inc., priority 2008, dated 2013)
